US20220259593A1, “CONTROL OF MAMMALIAN GENE DOSAGE USING CRISPR” (The Regents of the University of California, priority 2019, published 2022)

System: K562 CRISPRi cells
Assay: Perturb-seq pooled growth measurement (sgRNA counts, growth phenotype γ, relative activity)
Type: cell-based, human
Settings: sequencing read counts; for Perturb-seq pooled growth sgRNA counts, d5: 5 days of growth (day seven after transduction); for Perturb-seq pooled growth sgRNA counts, d10: 10 days of growth (day twelve after transduction); for Perturb-seq pooled growth sgRNA counts, T0: T0 = day two after transduction
How it was run: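 sgRNA abundance was sequenced from genomic DNA of the same transduced population sampled on days two, seven and twelve. Phenotype γ compares normalized day seven and twelve counts with day two. Day-seven values (five days of growth) define relative sgRNA activity.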

“ALDOA_+_30077139.23-P1P2_06: sgRNA targeting ALDOA, GGTCACCAGGATCCCTTCTG, SEQ ID NO: 157 (listed as DNA, chemistry not fully specified)” was tested. Which “Perturb-seq pooled growth sgRNA counts, d5” value did it give?
Its value is 4831.

And the “Perturb-seq pooled growth sgRNA counts, d10” value?
The value was 3500.

And the “Perturb-seq pooled growth sgRNA counts, T0” value?
Its value is 6015.

Which results are given for “RPS18_+_33239917.23-P1P2_08: sgRNA targeting RPS18, GCTGCGATTCCGCTGGATCA, SEQ ID NO: 43 (listed as DNA, chemistry not fully specified)”?
Perturb-seq pooled growth sgRNA counts, d5: 11101; Perturb-seq pooled growth sgRNA counts, d10: 13839; Perturb-seq pooled growth sgRNA counts, T0: 8535

Which “Perturb-seq pooled growth sgRNA counts, d5” value does the source give for “HSPE1_+_198365089.23-P1P2_02: sgRNA targeting HSPE1, GGAGACTGGCAGTCCGGCCC, SEQ ID NO: 67 (listed as DNA, chemistry not fully specified)” here?
The value was 5731.

And the “Perturb-seq pooled growth sgRNA counts, d10” value?
The value was 4437.

What about the “Perturb-seq pooled growth sgRNA counts, T0” value of the same substance?
Its value is 7969.

Which “Perturb-seq pooled growth sgRNA counts, d5” value does the source give for “MTOR_+_11322547.23-P1P2_07: sgRNA targeting MTOR, GGGCAGGGGGTCTGAAGCGG, SEQ ID NO: 147 (listed as DNA, chemistry not fully specified)” here?
The value was 3183.

And the “Perturb-seq pooled growth sgRNA counts, d10” value?
The value was 1899.

And the “Perturb-seq pooled growth sgRNA counts, T0” value?
The value was 6761.

Which “Perturb-seq pooled growth sgRNA counts, d5” value does the source give for “DBR1_+_137893744.23-P1P2_08: sgRNA targeting DBR1, GTTTGCAGTAGTCTACACCC, SEQ ID NO: 82 (listed as DNA, chemistry not fully specified)” here?
Its value is 11651.

And the “Perturb-seq pooled growth sgRNA counts, d10” value?
The value was 15989.

What about the “Perturb-seq pooled growth sgRNA counts, T0” value of the same substance?
The value was 5326.

With “RPS15_−_1438413.23-P1P2_12: sgRNA targeting RPS15, GACCAAAGCGATCTCTTGTG, SEQ ID NO: 63 (listed as DNA, chemistry not fully specified)” as the substance, how does the “Perturb-seq pooled growth sgRNA counts, d5” value read?
Its value is 12257.

And the “Perturb-seq pooled growth sgRNA counts, d10” value?
Its value is 19991.

What about the “Perturb-seq pooled growth sgRNA counts, T0” value of the same substance?
Its value is 4661.

What does the source list for “DUT_+_48624411.23-P1P2_08: sgRNA targeting DUT, GCGAGCGAGGAGGCCACCGG, SEQ ID NO: 112 (listed as DNA, chemistry not fully specified)”?
Perturb-seq pooled growth sgRNA counts, d5: 4351; Perturb-seq pooled growth sgRNA counts, d10: 2392; Perturb-seq pooled growth sgRNA counts, T0: 15356

With “CDC23_−_137548987.23-P1P2_04: sgRNA targeting CDC23, GACAGCCAACGGGACCATGG, SEQ ID NO: 100 (listed as DNA, chemistry not fully specified)” as the substance, how does the “Perturb-seq pooled growth sgRNA counts, d5” value read?
The value was 1646.

What about the “Perturb-seq pooled growth sgRNA counts, d10” value of the same substance?
The value was 1646.

And the “Perturb-seq pooled growth sgRNA counts, T0” value?
The value was 8019.

With “RPL9_+_39460483.23-P1P2_01: sgRNA targeting RPL9, GGATGATTCTGTGCTCGTGG, SEQ ID NO: 51 (listed as DNA, chemistry not fully specified)” as the substance, how does the “Perturb-seq pooled growth sgRNA counts, d5” value read?
Its value is 1108.

And the “Perturb-seq pooled growth sgRNA counts, d10” value?
Its value is 1238.

And the “Perturb-seq pooled growth sgRNA counts, T0” value?
The value was 4886.

Which “Perturb-seq pooled growth sgRNA counts, d5” value does the source give for “ALDOA_+_30077139.23-P1P2_07: sgRNA targeting ALDOA, GGTCACCAGGCCCCCTTCTG, SEQ ID NO: 158 (listed as DNA, chemistry not fully specified)” here?
The value was 4284.

And the “Perturb-seq pooled growth sgRNA counts, d10” value?
The value was 3028.

What about the “Perturb-seq pooled growth sgRNA counts, T0” value of the same substance?
The value was 4830.

What does the source list for “non-targeting_00054: non-targeting negative control sgRNA, GGGCCTGGACGAGCCTAAAA, SEQ ID NO: 163 (listed as DNA, chemistry not fully specified) [reference compound]”?
Perturb-seq pooled growth sgRNA counts, d5: 29818; Perturb-seq pooled growth sgRNA counts, d10: 49855; Perturb-seq pooled growth sgRNA counts, T0: 12360

How did the “Perturb-seq pooled growth sgRNA counts, d5” value turn out when “DBR1_+_137893744.23-P1P2_01: sgRNA targeting DBR1, GATTGCAGGAGTCTACACCC, SEQ ID NO: 79 (listed as DNA, chemistry not fully specified)” was run?
Its value is 5512.

And the “Perturb-seq pooled growth sgRNA counts, d10” value?
Its value is 1824.

And the “Perturb-seq pooled growth sgRNA counts, T0” value?
Its value is 9446.

Which results are given for “ALDOA_+_30077139.23-P1P2_00: sgRNA targeting ALDOA, GGTCACCAGGACCCCTTCTG, SEQ ID NO: 156 (listed as DNA, chemistry not fully specified)”?
Perturb-seq pooled growth sgRNA counts, d5: 4056; Perturb-seq pooled growth sgRNA counts, d10: 2781; Perturb-seq pooled growth sgRNA counts, T0: 5280

Which results are given for “DUT_+_48624411.23-P1P2_00: sgRNA targeting DUT, GCGAGCGAGGAGACCACCGG, SEQ ID NO: 110 (listed as DNA, chemistry not fully specified)”?
Perturb-seq pooled growth sgRNA counts, d5: 3755; Perturb-seq pooled growth sgRNA counts, d10: 1570; Perturb-seq pooled growth sgRNA counts, T0: 14025

With “ATP5E_−_57607036.23-P1P2_14: sgRNA targeting ATP5E, GGTGTCCAGGGGCACTGTGT, SEQ ID NO: 155 (listed as DNA, chemistry not fully specified)” as the substance, how does the “Perturb-seq pooled growth sgRNA counts, d5” value read?
Its value is 10750.

And the “Perturb-seq pooled growth sgRNA counts, d10” value?
Its value is 15257.

And the “Perturb-seq pooled growth sgRNA counts, T0” value?
Its value is 4611.

What does the source list for “ALDOA_+_30077139.23-P1P2_14: sgRNA targeting ALDOA, GGTCACCAGGACCGCTTCTG, SEQ ID NO: 159 (listed as DNA, chemistry not fully specified)”?
Perturb-seq pooled growth sgRNA counts, d5: 5347; Perturb-seq pooled growth sgRNA counts, d10: 6076; Perturb-seq pooled growth sgRNA counts, T0: 3603

How did the “Perturb-seq pooled growth sgRNA counts, d5” value turn out when “GNB2L1_+_180670873.23-P1P2_08: sgRNA targeting GNB2L1, GTGCAAGGTGGCGGCAGGAG, SEQ ID NO: 56 (listed as DNA, chemistry not fully specified)” was run?
The value was 25247.

And the “Perturb-seq pooled growth sgRNA counts, d10” value?
Its value is 17083.

And the “Perturb-seq pooled growth sgRNA counts, T0” value?
The value was 24451.

“GNB2L1_+_180670873.23-P1P2_13: sgRNA targeting GNB2L1, GTGCAAGGCGGCGGCGGGAG, SEQ ID NO: 57 (listed as DNA, chemistry not fully specified)” was tested. Which “Perturb-seq pooled growth sgRNA counts, d5” value did it give?
Its value is 6350.

What about the “Perturb-seq pooled growth sgRNA counts, d10” value of the same substance?
Its value is 5991.

And the “Perturb-seq pooled growth sgRNA counts, T0” value?
The value was 4708.

“SEC61A1_−_127771295.23-P1_03: sgRNA targeting SEC61A1, GGTACTGACGTGTCTCTCGG, SEQ ID NO: 86 (listed as DNA, chemistry not fully specified)” was tested. Which “Perturb-seq pooled growth sgRNA counts, d5” value did it give?
The value was 3530.

What about the “Perturb-seq pooled growth sgRNA counts, d10” value of the same substance?
Its value is 3563.

What about the “Perturb-seq pooled growth sgRNA counts, T0” value of the same substance?
Its value is 5904.

How did the “Perturb-seq pooled growth sgRNA counts, d5” value turn out when “RAN_+_131356438.23-P1P2_02: sgRNA targeting RAN, GGCGGCCGCTGCGCTTAGGG, SEQ ID NO: 70 (listed as DNA, chemistry not fully specified)” was run?
Its value is 15046.

What about the “Perturb-seq pooled growth sgRNA counts, d10” value of the same substance?
Its value is 15358.

And the “Perturb-seq pooled growth sgRNA counts, T0” value?
The value was 11853.

With “RPL9_+_39460483.23-P1P2_07: sgRNA targeting RPL9, GGATGTTTCTGCGCTCGTGG, SEQ ID NO: 54 (listed as DNA, chemistry not fully specified)” as the substance, how does the “Perturb-seq pooled growth sgRNA counts, d5” value read?
The value was 7867.

And the “Perturb-seq pooled growth sgRNA counts, d10” value?
The value was 9339.

And the “Perturb-seq pooled growth sgRNA counts, T0” value?
The value was 7336.

How did the “Perturb-seq pooled growth sgRNA counts, d5” value turn out when “GATA1_−_48645022.23-P1P2_12: sgRNA targeting GATA1, GTGAGCTTGCCACATCCGCA, SEQ ID NO: 124 (listed as DNA, chemistry not fully specified)” was run?
Its value is 7289.

What about the “Perturb-seq pooled growth sgRNA counts, d10” value of the same substance?
The value was 11548.

What about the “Perturb-seq pooled growth sgRNA counts, T0” value of the same substance?
The value was 4081.

How did the “Perturb-seq pooled growth sgRNA counts, d5” value turn out when “MTOR_+_11322547.23-P1P2_06: sgRNA targeting MTOR, GGGCAGGGGGGCTGAAGCGG, SEQ ID NO: 149 (listed as DNA, chemistry not fully specified)” was run?
Its value is 3358.

What about the “Perturb-seq pooled growth sgRNA counts, d10” value of the same substance?
The value was 3174.

What about the “Perturb-seq pooled growth sgRNA counts, T0” value of the same substance?
The value was 4142.

What does the source list for “CDC23_−_137548987.23-P1P2_11: sgRNA targeting CDC23, GACAGCCACCGGGACCACGG, SEQ ID NO: 101 (listed as DNA, chemistry not fully specified)”?
Perturb-seq pooled growth sgRNA counts, d5: 14320; Perturb-seq pooled growth sgRNA counts, d10: 16682; Perturb-seq pooled growth sgRNA counts, T0: 12707

For “non-targeting_00802: non-targeting negative control sgRNA, GCACGACGCTCCGGCACGCG, SEQ ID NO: 169 (listed as DNA, chemistry not fully specified) [reference compound]”, which “Perturb-seq pooled growth sgRNA counts, d5” value is on record?
Its value is 16759.

What about the “Perturb-seq pooled growth sgRNA counts, d10” value of the same substance?
The value was 27842.

And the “Perturb-seq pooled growth sgRNA counts, T0” value?
Its value is 7096.

What does the source list for “BCR_+_23523092.23-P1P2_04: sgRNA targeting BCR, GCGCGCGGAGCCCGTCTCAG, SEQ ID NO: 127 (listed as DNA, chemistry not fully specified)”?
Perturb-seq pooled growth sgRNA counts, d5: 1660; Perturb-seq pooled growth sgRNA counts, d10: 2119; Perturb-seq pooled growth sgRNA counts, T0: 5355

What does the source list for “POLR1D_+_28196016.23-P1_07: sgRNA targeting POLR1D, GGGAAGCAAGGAGCGACCGA, SEQ ID NO: 77 (listed as DNA, chemistry not fully specified)”?
Perturb-seq pooled growth sgRNA counts, d5: 16283; Perturb-seq pooled growth sgRNA counts, d10: 16285; Perturb-seq pooled growth sgRNA counts, T0: 15589

“EIF2S1_−_67827080.23-P1P2_02: sgRNA targeting EIF2S1, GAGCGCAGCGCACGCTGAGG, SEQ ID NO: 138 (listed as DNA, chemistry not fully specified)” was tested. Which “Perturb-seq pooled growth sgRNA counts, d5” value did it give?
Its value is 2570.

And the “Perturb-seq pooled growth sgRNA counts, d10” value?
The value was 2582.

What about the “Perturb-seq pooled growth sgRNA counts, T0” value of the same substance?
Its value is 8035.

What does the source list for “COX11_+_53045977.23-P1P2_03: sgRNA targeting COX11, GGCTCTGTCGTCCTGGATGG, SEQ ID NO: 142 (listed as DNA, chemistry not fully specified)”?
Perturb-seq pooled growth sgRNA counts, d5: 16852; Perturb-seq pooled growth sgRNA counts, d10: 9184; Perturb-seq pooled growth sgRNA counts, T0: 11251
